Assay results from patent publication US9399028B2, “Treatment of drug resistant cancer” (ROCKEFELLER UNIVERSITY (THE), priority 2012, dated 2016).
Counter-ions that a name gives are not always drawn.

Tests used:
ApoE = ApoE expression in vivo (western blot, qRT-PCR) in mouse tissues, white blood cells and tumors; conditions: for ApoE protein expression in systemic adipose, lung, and brain tissues: chow 20 mg/kg for 10 days, western blot; for ApoE transcript levels in circulating white blood cells: diet 20 mg/kg for 10 days
Method: FIG. 29A-K. Therapeutic Delivery of LXR Agonists Upregulates Melanoma-Derived and Systemic ApoE Expression. (FIG. 29A-FIG. 29B) ApoE expression levels, quantified by qRT-PCR, in subcutaneous tumors formed by B16F10 mouse melanoma cells injected into C57BL/6 mice. After 5-mm3 tumor formation, mice were fed a control diet or diet containing GW3965 (20 mg/kg) (FIG. 29A) or T0901317 (20 mg/kg) (FIG. 29B) for 7 days. n=3-4. (FIG. 29C-FIG. 29E) ApoE transcript expression in primary tumors (FIG. 29C), lung metastases (FIG. 29D), and brain metastases (FIG. 29E) formed by MeWo human melanoma cells grafted onto NOD Scid mice that were administered control chow or chow supplemented with GW3965 (20 mg/kg). ApoE levels were assessed on day 35 (FIG. 29C), day 153 (FIG. 29D), and day 34 (FIG. 29E) post-injection of the cancer cells. n=3-5. (FIG. 29F) Relative expression levels of LXRα, LXRβ, and ApoE were determined by qRT-PCR in B16F10 mouse melanoma cells expressing a control hairpin or an shRNA targeting mouse LXRα (sh_mLXRα), mouse LXRβ (sh_mLXRβ), or mouse ApoE (sh_mApoE). (FIG. 29G-FIG. 29H) ApoE (FIG. 29G) and ABCA1 (FIG. 29H) mRNA levels, measured by qRT-PCR, in B16F10 cells expressing a control shRNA or shRNAs targeting mouse LXRβ or mouse ApoE. The cells were treated with DMSO or GW3965 at 5 μM for 48 hours. n=3. (FIG. 29I) ABCA1 mRNA levels, measured by qRT-PCR, in systemic white blood cells extracted from LXRα−/− or LXRβ−/− mice fed a control diet or a GW3965-supplemented diet (20 mg/kg) for 10 days. n=3-4. (FIG. 29J) Relative expression of ApoE mRNA, expressed as the frequency of SAGE tags, in mouse skin and lung tissues was determined using the public mSAGE Expression Matrix database available through the NCI-funded Cancer Genome Anatomy Project (CGAP). (FIG. 29K) Relative expression of ApoE mRNA, determined by qRT-PCR, in MeWo melanoma cells dissociated from lung metastatic nodules (LM2) or primary tumors relative to control unselected MeWo parental cells. n=3.
FIG. 30A-I. LXRβ Agonism Suppresses Melanoma Tumor Growth and Metastasis by Inducing Melanoma-Derived and Systemic ApoE Expression. […] (FIG. 30B) Quantification of ApoE protein expression based on western blots shown in (FIG. 30A). […] (FIG. 30C) Expression levels of ApoE, determined by qRT-PCR, in systemic white blood cells from mice fed a control diet or a diet supplemented with GW3965 or T0901317 at 20 mg/kg for 10 days. n=3-6. […] Once the tumors reached 5-10 mm3 in volume, mice were fed a control diet or a diet supplemented with GW3965 (20 mg/kg) for 7 days, after which final tumor volume was measured. […] (FIG. 30E) ApoE transcript levels, quantified by qRT-PCR, in systemic white blood cells extracted from LXRα−/− or LXRβ−/− mice fed a control diet or a GW3965-supplemented diet (20 mg/kg) for 10 days. n=3-5. […]

[1] = tested on: human breast, pancreatic, renal, lung cancer and uveal melanoma cell lines; assay: Trans-well matrigel invasion assay, other cancer types; type: cell-based
Method: The ability of cancer cells to invade through matrigel in vitro was tested by using a trans-well matrigel invasion chamber system (354480, BD Biosciences). Various cancer cell lines were serum-starved overnight in media containing 0.2% FBS. The following day, invasion chambers were pre-equilibrated prior to the assay by adding 0.5 mL of starvation media to the top and bottom wells. Meanwhile, cancer cells were trypsinized and viable cells were counted using the trypan blue dead cell exclusion dye. Cancer cells were then resuspended at a concentration of 1×10^5 cells/1 mL starvation media, and 0.5 mL of cell suspension, containing 5×10^4 cells, was seeded into each trans-well. […] The basal side of each insert was imaged using an inverted fluorescence microscope (Zeiss Axiovert 40 CFL) at 5× magnification, and the number of DAPI-positive cells was quantified using ImageJ.
The cells were serum starved for 16 hours in 0.2% FBS media in the presence of DMSO or GW3965. […] Meanwhile, cancer cells were trypsinized and viable cells were counted using trypan blue. […] The basal side of each insert was imaged using an inverted fluorescence microscope (Zeiss Axiovert 40 CFL) at 5× magnification, and the number of DAPI-positive cells was quantified using ImageJ.

## O=S(=O)(c1ccccc1)N(CC(F)(F)F)c1ccc(C(O)(C(F)(F)F)C(F)(F)F)cc1 [T0901317 1]
ApoE
  ApoE protein expression in systemic adipose, lung, and brain tissues: significantly elevated
  ApoE transcript levels in circulating white blood cells: upregulated

## O=C(O)Cc1cccc(OCCCN(Cc2cccc(C(F)(F)F)c2Cl)CC(c2ccccc2)c2ccccc2)c1 [GW3965 2, 3-[3-[N-(2-Chloro-3-trifluoromethylbenzyl)-(2,2-diphenylethyl)amino]propyloxy]phenylacetic acid hydrochloride]
[1]; RCC, PANC1, H460 cells, 1 μM for 72 hours
  tumor cell invasion in renal, pancreatic and lung cancer cells: inhibition
ApoE
  ApoE protein expression in systemic adipose, lung, and brain tissues: significantly elevated
  ApoE transcript levels in circulating white blood cells: upregulated

## recombinant human ApoE3: recombinant human ApoE3 (4696, BioVision)
[1]; recombinant ApoE3 100 μg/mL
  tumor cell invasion across breast, renal cell and pancreatic cancer: inhibited
